Laboratory results reported in US11771702B2, “Agonists of PPAR-δ” (priority 2018, dated 2023).
Where two headings read alike, the source gives them in different places.

Assays:
PPAR-δ [1] = biological target: T1, PPAR-δ (Homo sapiens, UniProt Q03181); conditions: ligand of the PDB complex, published EC50; cited from earlier work
T1 sequence (Q03181 1-441): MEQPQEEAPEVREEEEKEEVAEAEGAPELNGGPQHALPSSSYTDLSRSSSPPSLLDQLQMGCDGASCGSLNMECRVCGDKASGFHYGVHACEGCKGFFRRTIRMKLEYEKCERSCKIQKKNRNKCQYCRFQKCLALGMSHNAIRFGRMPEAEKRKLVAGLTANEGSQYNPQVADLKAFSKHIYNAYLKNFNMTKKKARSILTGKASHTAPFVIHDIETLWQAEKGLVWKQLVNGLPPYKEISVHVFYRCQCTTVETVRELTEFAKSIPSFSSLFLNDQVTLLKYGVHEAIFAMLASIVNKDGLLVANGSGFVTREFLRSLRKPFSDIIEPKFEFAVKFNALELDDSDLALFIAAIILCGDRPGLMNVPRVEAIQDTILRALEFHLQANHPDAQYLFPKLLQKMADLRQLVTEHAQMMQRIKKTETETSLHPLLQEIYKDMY

PPAR-δ [2] = biological target: T2, PPAR-δ (Homo sapiens, UniProt Q03181); assay: GAL4-DBD/PPAR-LBD luciferase reporter agonist assay in HEK293T cells, PPAR-δ; type: cell-based; conditions: for PPAR subtype selectivity: PPAR-δ vs PPAR-α and PPAR-γ
T2 construct: hPPARδ/LBD encoding amino acids 147-441; expressed in transfected cells; host or cells: HEK293T
T2 sequence (Q03181 147-441): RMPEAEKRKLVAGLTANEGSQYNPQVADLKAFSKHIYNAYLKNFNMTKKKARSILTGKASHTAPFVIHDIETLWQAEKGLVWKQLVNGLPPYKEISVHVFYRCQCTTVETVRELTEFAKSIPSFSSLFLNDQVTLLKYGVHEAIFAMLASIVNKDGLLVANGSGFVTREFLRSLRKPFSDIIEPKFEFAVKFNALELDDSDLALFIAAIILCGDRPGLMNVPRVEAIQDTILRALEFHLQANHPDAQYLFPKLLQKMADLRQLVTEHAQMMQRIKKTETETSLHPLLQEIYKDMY
Experimental: (§1) Measuring molecular agonist activities—a GAL4-DNA Binding Domain (GAL4-DBD) fusion protein was constructed for each PPAR family member. To assess compound activity, each construct was co-transfected into HEK293T cells (American Type Culture Collection; Manassas, Va.) along with the reporter construct, pGL5 (Promega) using Fugene 6 (Promega) as a transfection reagent and the manufacturer's protocol. An eleven-point dilution series of each compound was added to the cells and incubated overnight. Luciferase levels were then determined following the addition of Bright-Glo (Promega) using the manufacturer's recommendations.

PPAR-α = biological target: T3, PPAR-α (Homo sapiens, UniProt Q07869); assay: GAL4-DBD/PPAR-LBD luciferase reporter agonist assay in HEK293T cells, PPAR-α; type: cell-based
T3 construct: hPPARα/LBD encoding amino acids 175-468; expressed in transfected cells; host or cells: HEK293T
T3 sequence (Q07869 175-468): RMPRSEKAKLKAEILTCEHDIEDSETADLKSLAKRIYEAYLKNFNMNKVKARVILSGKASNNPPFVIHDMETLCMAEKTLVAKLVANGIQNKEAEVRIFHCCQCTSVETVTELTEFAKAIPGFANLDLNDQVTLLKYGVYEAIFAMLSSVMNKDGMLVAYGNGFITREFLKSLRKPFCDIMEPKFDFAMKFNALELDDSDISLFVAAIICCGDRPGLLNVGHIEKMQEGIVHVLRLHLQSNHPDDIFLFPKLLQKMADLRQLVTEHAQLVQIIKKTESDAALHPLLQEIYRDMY
Experimental: as §1

PPAR-γ = biological target: T4, PPAR-γ (Homo sapiens, UniProt P37231); assay: GAL4-DBD/PPAR-LBD luciferase reporter agonist assay in HEK293T cells, PPAR-γ; type: cell-based
T4 construct: hPPARγ/LBD encoding amino acids 184-477; expressed in transfected cells; host or cells: HEK293T
T4 sequence (P37231 184-477 isoform P37231-2): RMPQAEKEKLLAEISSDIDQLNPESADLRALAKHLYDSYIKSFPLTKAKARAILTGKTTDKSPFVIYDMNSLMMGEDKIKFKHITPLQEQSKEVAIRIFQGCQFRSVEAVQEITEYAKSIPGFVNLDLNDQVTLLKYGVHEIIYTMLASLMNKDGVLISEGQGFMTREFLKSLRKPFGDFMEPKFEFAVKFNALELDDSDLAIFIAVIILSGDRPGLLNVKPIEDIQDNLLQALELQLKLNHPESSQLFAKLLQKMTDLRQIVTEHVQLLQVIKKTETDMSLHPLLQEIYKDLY
Experimental: as §1

[3] = Table 10 (PPAR-δ), read-out: PPAR-δ EC50

EC50 (PPAR-δ [2]; Table 10) [µM]	EC50 (PPAR-α; Table 10) [µM]	EC50 (PPAR-δ [2]; Table 9) [µM]	Structure (SMILES)	other results
–	–	–	CC/C=C\C/C=C\C/C=C\C/C=C\C/C=C\CCCC(=O)O [3GXW]	EC50 (PPAR-δ [1]): 4 µM
7.55	7.04	–	O=C(COc1ccc(C(=O)O)cc1)NC(c1ccccc1)c1ccc(Cl)cc1 (stereo not shown) [GNF-0248]	–
–	–	0.011	Cc1ccc(C(=O)Nc2cccc(CNCc3ccc(OC(F)(F)F)cc3)c2)cc1 [GNF-0341]	PPAR subtype selectivity (PPAR-δ [2]): agonists of PPAR-δ and PPAR-γ only; EC50 (PPAR-γ; Table 9, read-out: PPAR-γ EC50): 1.26 µM
7.76	7.33	–	O=C(O)Cc1csc(SCc2cc(F)cc3c2OC(c2ccccc2)OC3)n1 (stereo not shown) [GNF-1051]	–
8.39	6.2	–	CCCOc1c(/C=C/C(=O)c2ccc(SCC(=O)O)c(OC)c2)cccc1OCC [GNF-1676]	EC50 (PPAR-γ; [3]): 1.29 µM
–	–	0.007	O=C(NCc1ccc(COCC(F)(F)F)cc1)c1cc(-c2ccccc2)[nH]n1 [GNF-3632]	PPAR subtype selectivity (PPAR-δ [2]): agonists of PPAR-δ and PPAR-α only; EC50 (PPAR-α; Table 9): 5.48 µM
6.82	2.33	–	CCOc1cc(/C=C/C(=O)O)ccc1OCc1ccc(C(C)(C)C)cc1 [GNF-4516]	–
8.24	0.825	–	COc1ccc(C(=O)/C=C/c2c(C)nn(-c3ccccc3)c2Cl)cc1CSCC(=O)O [GNF-4909]	EC50 (PPAR-γ; [3]): 1.83 µM
7.04	> 10	–	COCCCn1c(SCc2cccc(C(=O)O)c2)nc2sc3c(c2c1=O)CCCS3 [GNF-5154]	EC50 (PPAR-γ; [3]): > 10 µM
–	–	0.013	CCc1cc(C(c2cccc(OC)c2)N2CCN(CCO)CC2)c(NC(=O)c2ccccc2)s1 (stereo not shown) [GNF-5295]	PPAR subtype selectivity (PPAR-δ [2]): agonists of PPAR-δ and PPAR-γ only; EC50 (PPAR-α; Table 9): > 10 µM; EC50 (PPAR-γ; Table 9, read-out: PPAR-γ EC50): 7.28 µM
4.33	6.93	–	COc1cc(/C=C2/S/C(=N/c3ccccc3)NC2=O)ccc1OCc1cccc(C(=O)O)c1 [GNF-5758]	EC50 (PPAR-γ; [3]): 9.73 µM
–	–	0.017	O=C(Nc1ccccc1O)C1CCN(C(=O)COc2ccc(F)cc2)CC1 [GNF-5891]	EC50 (PPAR-γ; Table 9, read-out: PPAR-γ EC50): > 10 µM
–	–	0.012	O=C(Nc1cccc(CNCC(c2cccs2)N2CCOCC2)c1)c1ccc(Cl)cc1 (stereo not shown) [GNF-6029]	–
–	–	0.008	CCOc1cccc(/C=N/c2cccc(-c3csc(/N=C/c4cccc(OCC)c4O)n3)c2)c1O [GNF-6878]	–
3.7	6.9	–	O=C(OCC(=O)c1ccc(O)cc1O)c1ccc(COc2ccc3ccccc3c2)o1 [GNF-6928]	EC50 (PPAR-γ; [3]): 3.78 µM
–	–	0.019	COc1cc(CNCc2cc(C)on2)ccc1OCC(=O)Nc1ccc(Br)cc1 [GNF-6952]	PPAR subtype selectivity (PPAR-δ [2]): agonists of PPAR-δ and PPAR-α only; EC50 (PPAR-α; Table 9): 7.56 µM
7.24	–	–	O=C(NCCCCOc1ccc(F)cc1)c1ccc([N+](=O)[O-])c(O)c1 [GNF-7176]	–
–	–	0.018	COc1ccc(N2CCN(C(=O)CSc3nnc(COc4ccc(Cl)cc4C)[nH]3)CC2)cc1 [GNF-7486]	–
–	–	0.006	O=C(CN1CCN(c2ccc(O)cc2)CC1)NCC1(N2CCOCC2)CCCCC1 [GNF-8501]	–
–	–	0.011	CCOC(=O)NC(=O)COC(=O)c1c2c(nc3ccccc13)/C(=C\c1ccc(OC)cc1)CC(C)C2 (stereo not shown) [GNF-8560]	PPAR subtype selectivity (PPAR-δ [2]): pan-agonist; EC50 (PPAR-α; Table 9): 1.41 µM; EC50 (PPAR-γ; Table 9, read-out: PPAR-γ EC50): 3.53 µM
7.49	4.63	–	Cc1cc(C(=O)COc2ccc(C(=O)O)cc2)c(C)n1CCC1=CCCCC1 [GNF-9057]	EC50 (PPAR-γ; [3]): 8.6 µM
–	–	0.883	O=C(Nc1ccccc1O)C1CCN(C(=O)c2ccc(OCC3CCCO3)cc2)CC1 (stereo not shown) [GNF-9448]	EC50 (PPAR-α; Table 9): 7.06 µM; EC50 (PPAR-γ; Table 9, read-out: PPAR-γ EC50): 0.937 µM
4.6	–	–	O=[N+]([O-])c1cc(S(=O)(=O)N2CCCC2)ccc1OCC(O)CNCc1ccc(F)cc1 (stereo not shown) [GNF-9594]	–
–	–	0.012	Cc1ccc(-c2nc(SCCCC(=O)N3CCOCC3)[nH]c2-c2ccc(C)cc2)cc1 [GNF-9820]	–
9.48	6.94	–	Cc1cc(C(=O)COC(=O)c2ccc(O)cc2O)c(C)n1Cc1ccc(F)cc1 [GNF-9969]	EC50 (PPAR-γ; [3]): 1.01 µM

Structure (SMILES)	EC50 (PPAR-δ [2]; Table 10) [µM]	EC50 (PPAR-α; Table 10) [µM]	EC50 (PPAR-δ [2]; Table 9) [µM]	other results
CC(C(=O)Nc1ccc(SC(F)F)cc1)N1CC=C(c2ccc(O)cc2)CC1 (stereo not shown) [GNF-8208]	7.86	–	–	–
